The values that follow come from ChEMBL document CHEMBL1201862, “PubChem BioAssay data set” (2004).

Structures are written as SMILES. Calls of active or inactive are those of the source.

Broadly, the AC50 is the concentration giving half of the maximal activity seen. Broadly, the CC50 is the concentration that lowers cell viability or growth by half.

Assay [1] has as its target T1, Short transient receptor potential channel 4 (Mus musculus, UniProt Q9QUQ5).
T1 sequence (Q9QUQ5 whole entry): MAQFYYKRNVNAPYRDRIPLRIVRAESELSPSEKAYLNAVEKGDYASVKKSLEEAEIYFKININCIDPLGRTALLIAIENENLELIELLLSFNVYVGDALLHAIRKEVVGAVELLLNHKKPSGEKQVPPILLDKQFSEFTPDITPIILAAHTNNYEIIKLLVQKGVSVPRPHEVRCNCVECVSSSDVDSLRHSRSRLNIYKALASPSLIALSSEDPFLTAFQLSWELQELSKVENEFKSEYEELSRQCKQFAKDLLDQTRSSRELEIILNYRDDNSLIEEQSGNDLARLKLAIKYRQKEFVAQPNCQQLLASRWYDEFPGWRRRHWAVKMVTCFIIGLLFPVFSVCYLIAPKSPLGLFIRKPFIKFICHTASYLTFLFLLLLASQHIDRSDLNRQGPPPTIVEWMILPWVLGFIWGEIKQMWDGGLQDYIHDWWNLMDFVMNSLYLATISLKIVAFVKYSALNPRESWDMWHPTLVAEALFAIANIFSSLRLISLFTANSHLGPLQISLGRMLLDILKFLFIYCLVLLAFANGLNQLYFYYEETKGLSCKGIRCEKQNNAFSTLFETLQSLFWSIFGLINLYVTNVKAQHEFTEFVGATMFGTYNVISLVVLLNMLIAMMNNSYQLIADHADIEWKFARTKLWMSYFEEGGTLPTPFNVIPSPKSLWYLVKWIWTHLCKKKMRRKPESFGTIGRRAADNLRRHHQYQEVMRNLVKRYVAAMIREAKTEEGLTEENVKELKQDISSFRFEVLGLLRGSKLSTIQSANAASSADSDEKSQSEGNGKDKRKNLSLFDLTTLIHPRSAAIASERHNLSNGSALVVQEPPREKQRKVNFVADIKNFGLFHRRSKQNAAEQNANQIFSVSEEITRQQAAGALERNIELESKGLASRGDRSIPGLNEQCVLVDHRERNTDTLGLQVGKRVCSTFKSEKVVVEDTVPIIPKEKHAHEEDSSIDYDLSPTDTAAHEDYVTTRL
Briefly: mouse TRPC4 channel activators, dose response, cell-based, HEK293 TRPC4/mu-opioid, Fluo-4 calcium (AID 434937). The assay is classed as functional.

The nature of assay [2]: cytotoxicity toward NIH3T3 fibroblasts, dose response, counter-screen, cell-based, ATP luminescence, mouse fibroblasts (AID 2010).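 Further: cells exposed to compound for about 90 hours before reading.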 The assay is classed as functional. (Counterscreens check selectivity or assay interference.)
Assay [3] has as its target T2, Ubiquitin-conjugating enzyme E2 N (Homo sapiens, UniProt P61088).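 Further: Dose-response confirmation in a TR-FRET assay detecting UBC13-driven polyubiquitin chain formation, inhibition measured.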
T2 sequence (P61088 whole entry): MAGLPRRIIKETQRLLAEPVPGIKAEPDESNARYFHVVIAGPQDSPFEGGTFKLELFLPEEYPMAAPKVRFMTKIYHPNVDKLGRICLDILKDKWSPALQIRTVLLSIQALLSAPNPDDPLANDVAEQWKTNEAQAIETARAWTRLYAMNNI
The assay is classed as functional.

Assay [4] in a line: inhibitors of intracellular T. cruzi replication, confirmation, NIH3T3 host cells, beta-gal luminescence (AID 2044).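 Further: intracellular parasites grown in NIH/3T3 mouse fibroblasts as host cells; luminescent beta-galactosidase reporter signal from transgenic T. cruzi replicating inside host cells; inhibitors lower the luminescence signal.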 The assay is classed as functional, cell-based.
For assay [5], the target named is T3, RNA-binding protein pos-1 (Caenorhabditis elegans, UniProt G5EF15).
T3 sequence (G5EF15 whole entry): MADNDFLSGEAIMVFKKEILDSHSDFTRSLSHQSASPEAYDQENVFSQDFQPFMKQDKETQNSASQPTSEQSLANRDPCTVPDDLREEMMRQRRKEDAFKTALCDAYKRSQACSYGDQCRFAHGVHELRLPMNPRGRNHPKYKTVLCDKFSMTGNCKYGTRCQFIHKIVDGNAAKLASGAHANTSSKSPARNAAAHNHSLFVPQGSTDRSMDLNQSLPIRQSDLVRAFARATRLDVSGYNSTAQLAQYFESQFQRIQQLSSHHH
The assay is described as follows: inhibitors of POS-1/mex-3 RNA binding, dose response, biochemical, fluorescence polarization (AID 1964).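 Further: purified POS-1 fused to maltose binding protein made in E. coli; potency of compounds blocking POS-1 binding to fluorescent RNA.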

Assay [6] addresses T4, Zinc finger protein mex-5 (Caenorhabditis elegans, UniProt Q9XUB2).
T4 sequence (Q9XUB2 whole entry): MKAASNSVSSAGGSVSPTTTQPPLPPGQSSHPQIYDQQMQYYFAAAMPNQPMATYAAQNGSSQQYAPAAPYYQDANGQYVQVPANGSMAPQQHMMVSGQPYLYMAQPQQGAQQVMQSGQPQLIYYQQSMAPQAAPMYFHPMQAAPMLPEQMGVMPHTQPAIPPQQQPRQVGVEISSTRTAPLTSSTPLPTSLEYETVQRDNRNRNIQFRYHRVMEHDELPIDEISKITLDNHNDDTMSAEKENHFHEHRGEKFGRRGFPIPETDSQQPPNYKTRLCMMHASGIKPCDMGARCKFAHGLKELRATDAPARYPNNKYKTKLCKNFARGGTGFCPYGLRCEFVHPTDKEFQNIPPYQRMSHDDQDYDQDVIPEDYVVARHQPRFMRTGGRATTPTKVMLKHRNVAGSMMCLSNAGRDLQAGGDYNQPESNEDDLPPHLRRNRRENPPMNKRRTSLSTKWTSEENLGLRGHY
Briefly: MEX-5/TCR-2 RNA interaction inhibitors, dose response, biochemical, C. elegans, fluorescence polarization (AID 1960). In general terms: Fluorescence polarisation rises when a labelled molecule tumbles more slowly, as on binding a larger partner.

Assay [7] in a line: growth suppression of PTEN-null colon cells, dose response, cell-based, HCT116 PTEN knockout (AID 1047).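 Further: HCT116 colon tumor cells with PTEN knocked out; cells exposed to compound for 60 hours before readout; potency for loss of cell viability measured by luminescence.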 The assay is classed as functional.
The nature of assay [8]: growth suppression of beta-catenin-knockout colon cells, dose response, cell-based, HCT116, human colon tumor (AID 1045).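 Further: HCT116 colon tumor cells with beta catenin knocked out; cells exposed to compound for 60 hours.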 The class given is functional.
For another assay, the system named is H4. Briefly: Luminescence Cell-Based Dose Response HTS to Identify Activators of 5'UTR Stem-Loop Driven Prion Protein mRNA Translation in H4 Neuroglioblastoma Cells. [Related pubchem assays: 1829 (Project Summary), 1814 (Primary HTS)]. The following applies: Homo sapiens. The assay is classed as functional.
A short description of assay [9]: Luminescence Cell-Based Dose Response HTS to Identify Activators of Luciferase Translation or Activity in H4 […] Cells. [Related pubchem assays: 1829 (Project Summary), 1814 (Primary HTS)]. The assay is classed as functional.
Assay [10] can be described thus: Luminescence Cell-Based Dose Confirmation HTS to Identify Activators of 5'UTR Stem-Loop Driven Alpha-Synuclein mRNA Translation in H4 Neuroglioblastoma Cells. [Related pubchem assays: 1829 (Project Summary), 1814 (Primary HTS)]. The assay is classed as functional.
For assay [11], the target named is Glyceraldehyde-3-phosphate dehydrogenase (Homo sapiens, UniProt P04406).
In assay [12] the target is T5, Corticotropin-releasing factor receptor 2/Corticotropin-releasing factor-binding protein (Homo sapiens, UniProt P24387+Q13324).
T5 sequence (Q13324 whole entry): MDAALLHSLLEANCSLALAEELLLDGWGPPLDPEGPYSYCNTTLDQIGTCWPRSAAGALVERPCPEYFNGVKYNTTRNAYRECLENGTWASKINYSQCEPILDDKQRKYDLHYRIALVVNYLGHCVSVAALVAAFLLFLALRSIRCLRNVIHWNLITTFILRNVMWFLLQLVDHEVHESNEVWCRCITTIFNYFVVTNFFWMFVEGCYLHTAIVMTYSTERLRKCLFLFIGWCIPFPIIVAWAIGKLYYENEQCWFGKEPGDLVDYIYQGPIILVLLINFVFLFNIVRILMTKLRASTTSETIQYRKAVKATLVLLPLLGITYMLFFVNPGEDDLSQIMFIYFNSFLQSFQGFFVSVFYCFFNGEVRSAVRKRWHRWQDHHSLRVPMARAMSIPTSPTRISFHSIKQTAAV
T5 sequence (P24387 whole entry): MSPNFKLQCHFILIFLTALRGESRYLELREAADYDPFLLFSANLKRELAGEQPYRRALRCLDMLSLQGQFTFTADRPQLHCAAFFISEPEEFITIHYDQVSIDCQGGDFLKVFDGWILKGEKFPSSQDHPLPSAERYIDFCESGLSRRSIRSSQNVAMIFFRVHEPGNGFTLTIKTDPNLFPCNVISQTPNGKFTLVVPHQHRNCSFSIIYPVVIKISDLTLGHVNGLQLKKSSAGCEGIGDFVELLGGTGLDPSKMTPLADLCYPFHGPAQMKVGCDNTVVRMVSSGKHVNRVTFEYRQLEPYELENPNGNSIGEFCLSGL
The assay is described as follows: Dose Response confirmation of uHTS hits for small molecule antagonists of the CRF-binding protein and CRF-R2 receptor complex. The class given is functional. The following applies: read-out: IC50_Mean.

In assay [13] the target is T5, Corticotropin-releasing factor receptor 2/Corticotropin-releasing factor-binding protein. Briefly: activators of CRF receptor 2 with binding protein – uHTS hits, confirmation (AID 602473). The assay is classed as functional. As to conditions: read-out: EC50_Mean.
The nature of assay [14]: Luminescence Cell-Based Dose Retest to Confirm Inhibitors of Cancer Stem Cells. [Related pubchem assays (depositor defined):AID2717, AID2721]. The assay is classed as functional. As to conditions: Homo sapiens.
The target in the next assay is Genome polyprotein (dengue virus type 2, UniProt P29990). Briefly: Dengue-2 NS5 methyltransferase inhibitors, primary screen, biochemical, confirmation dose response (AID 588689). The class given is functional.
The test system of the next assay is Vero. Briefly: Vero cell cytotoxicity, cytotoxicity control for flavivirus capping enzyme inhibitors (AID 588742). The class given is functional. The following applies: Chlorocebus sabaeus.
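Wherever AC50 is given: cells exposed to compound for roughly 70 hours or longer before luminescence read.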

Sequence of Glyceraldehyde-3-phosphate dehydrogenase (P04406 whole entry): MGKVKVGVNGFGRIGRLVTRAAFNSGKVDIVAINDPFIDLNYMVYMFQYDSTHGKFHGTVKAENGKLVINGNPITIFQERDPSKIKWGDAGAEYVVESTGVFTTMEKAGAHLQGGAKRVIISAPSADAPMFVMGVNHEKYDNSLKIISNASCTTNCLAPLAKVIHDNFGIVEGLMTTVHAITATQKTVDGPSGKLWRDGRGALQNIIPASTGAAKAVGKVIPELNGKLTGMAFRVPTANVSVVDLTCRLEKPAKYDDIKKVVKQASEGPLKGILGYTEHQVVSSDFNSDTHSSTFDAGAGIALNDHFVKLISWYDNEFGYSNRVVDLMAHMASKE
Sequence of Genome polyprotein (P29990 2492-3391 limits assumed): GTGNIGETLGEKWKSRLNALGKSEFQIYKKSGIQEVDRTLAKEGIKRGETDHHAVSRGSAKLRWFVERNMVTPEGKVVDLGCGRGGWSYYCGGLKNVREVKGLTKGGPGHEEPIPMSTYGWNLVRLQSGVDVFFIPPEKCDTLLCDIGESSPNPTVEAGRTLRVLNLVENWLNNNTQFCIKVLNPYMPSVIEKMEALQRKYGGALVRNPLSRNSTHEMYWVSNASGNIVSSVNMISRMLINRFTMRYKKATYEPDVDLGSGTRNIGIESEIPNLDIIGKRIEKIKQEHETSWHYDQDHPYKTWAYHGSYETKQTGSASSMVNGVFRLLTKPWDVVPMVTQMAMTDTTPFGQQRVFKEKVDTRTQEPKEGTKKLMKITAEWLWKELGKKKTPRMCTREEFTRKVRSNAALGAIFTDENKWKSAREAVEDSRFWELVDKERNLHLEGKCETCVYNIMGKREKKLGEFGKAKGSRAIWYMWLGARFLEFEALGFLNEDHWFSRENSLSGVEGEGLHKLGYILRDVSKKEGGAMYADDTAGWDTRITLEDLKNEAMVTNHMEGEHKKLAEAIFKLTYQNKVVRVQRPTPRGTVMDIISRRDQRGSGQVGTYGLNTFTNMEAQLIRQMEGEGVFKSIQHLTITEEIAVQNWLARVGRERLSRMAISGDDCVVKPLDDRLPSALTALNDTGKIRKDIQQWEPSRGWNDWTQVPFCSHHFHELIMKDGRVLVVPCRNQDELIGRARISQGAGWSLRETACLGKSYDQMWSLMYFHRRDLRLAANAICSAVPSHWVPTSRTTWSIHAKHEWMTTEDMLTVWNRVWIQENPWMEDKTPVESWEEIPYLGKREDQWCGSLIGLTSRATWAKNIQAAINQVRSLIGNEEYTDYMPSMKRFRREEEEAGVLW

`CN1CCN(Cc2nc3c(c(=O)[nH]c(=O)n3C)n2Cc2c(F)cccc2Cl)CC1`: the EC50 in assay [1] is 1.68 µM (active).
For `COc1cc(C(CCN2CCCC2)c2c(OC)cc(OC)c3c(-c4ccccc4)cc(=O)oc23)cc(OC)c1OC` (stereo not given), the EC50 in assay [2] is 49.2 µM (active); in assay [4] it was 1.7 µM (active); in assay [5], > 300 µM (not active); in assay [6] it was > 300 µM (not active). The IC50 in [3] was > 20 µM (inactive).
Turning to `CC1(C)CC2=NC3=C(C(=O)c4ccccc43)C(c3ccc(Cl)cc3)C2=C(O)C1` (stereo not given), the IC50 in assay [3] was > 20 µM (inactive). The EC50 was 13.1 µM (active) in assay [7] and 13.8 µM (active) in assay [8].
For the molecule `COc1cccc(NC(=O)COC(=O)c2c(F)cccc2Cl)c1`, the EC50 in the assay with H4 was 20.2 µM (active); in assay [9] it was 16.1 µM (active); in assay [10], 66.8 µM (active).
Consider `NS(=O)(=O)c1ccc(NC(=O)COc2ccccc2)cc1`, for which the IC50 in assay [11] is recorded as > 100 µM (not active).
Take `CC1CCC(NC(=O)C2CCN(c3c4c(nc5ncnn35)CCC4)CC2)CC1` (stereo not given): the results for the EC50 (in the assay on H4; in [9]; in assay [10]) were 22.3 µM (active), 64.8 µM (active) and 48.6 µM (active), respectively.
`CC(=O)c1ccc(NC(=O)CCc2nnc3ccc(N4CCC5(CC4)OCCO5)nn23)cc1`: in [12], the IC50 was > 47.1 µM (inactive). The EC50 in assay [13] was > 53 µM (inactive).
`COc1ccc(NC(=O)C(Sc2ccccc2)c2ccccc2)c(OC)c1` (stereo not given): in assay [12], the IC50 is > 47.1 µM (inactive). For the same molecule, the EC50 in assay [13] was > 53 µM (inactive).
Take `c1ccc(CN2CCC(NC3=NN=C(c4ccc5c(c4)OCCO5)CS3)CC2)cc1`: the EC50 was 48.5 µM (active) in the assay with H4, > 120 µM (not active) in assay [9] and 12.5 µM (active) in assay [10].
As to `COc1ccc(-c2sc3ccccc3c2C#Cc2cncn2C)cc1`, the IC50 in assay [3] was > 20 µM (inactive). Besides, the AC50 in [14] is 2.69 µM (active).
Take `CCCC(C(=O)NC(C)(C)C)N(Cc1ccccc1Cl)C(=O)c1snc(C(N)=O)c1N` (stereo not given): the IC50 in [3] is > 20 µM (inactive).
Consider `CCC(C)/C=C(C)/C=C/C1=CC2=C(Cl)C(=O)C(C)(OC(C)=O)C(=O)C2=CO1` (stereo not given), for which the IC50 on Genome polyprotein was 38 µM (active). Also, the EC50 in the assay with H4 is listed as > 120 µM (not active); in [5] it was > 300 µM (not active); in assay [9], > 120 µM (not active); in assay [10], > 120 µM (not active); in assay [6], > 300 µM (not active). Further, the CC50 with Vero was > 40 µM (active).
On to `O=C(COc1cc(Cl)c(Cl)cc1Cl)NCCc1ccccn1`, for which the EC50 in assay [1] was 10.6 µM (active).
Turning to `CCCCC(=O)NC(=S)NNC(=O)c1ccc(Cl)cc1Cl`, the values for the EC50 in assay [1] and in assay [13] were 5.31 µM (active) and 6.56 µM (active), respectively.
In the case of `NC(=O)C1CCCN(CC(O)COCc2ccc(Cl)cc2)C1` (stereo not given), the EC50 in [1] is 0.211 µM (active).
On to `COc1cc(C(=O)Nc2cccc(S(=O)(=O)N3CCCC3)c2)cc(OC)c1C`, for which the IC50 in assay [3] is > 20 µM (inactive).
On to `COc1ccccc1NC(=O)CSc1nnc(CNC(=O)c2ccco2)o1`, for which the IC50 in assay [12] is > 47.1 µM (inactive). In addition, the EC50 in assay [13] is > 53 µM (inactive).
With `Cc1cc(C)c(CN2CCN(Cc3ccc(C)o3)C(CCO)C2)c(-n2cccn2)c1` (stereo not given), in [1], the EC50 was 3.35 µM (active).
As to `CN(C)C(CNC(=O)c1ccc2ccccc2n1)c1ccccc1` (stereo not given), the EC50 in assay [1] is 0.267 µM (active).
Regarding `Cc1ccccc1Cn1c(CN2CCc3ccccc3C2)nc2c1c(=O)n(C)c(=O)n2C`, the EC50 in [1] was 5.96 µM (active).
For the molecule `O=C1C(=Cc2ccncc2)CCCc2ccccc21`, the IC50 in assay [12] was > 47.1 µM (inactive). Also, the EC50 in assay [13] was > 53 µM (inactive).
